This is an account of results in patent publication US20090029970A1, “PAIN REMEDY CONTAINING ROCK INHIBITOR” (Astellas Pharma Inc., priority 2005, published 2009).

Assay [1] concerns rat MIA-induced osteoarthritis model. As to the kind of experiment: Analgesic test by assessment of hindlimb weight distribution in monoiodoacetate (MIA)-induced osteoarthritis model. Format: in vivo. To be noted: for ED50: Rattus norvegicus, read-out: Difference in weight between the right and left hindlimbs of rats: ED50. The protocol:
This disease model was prepared according to the description in Toxicol Pathol 31(6), 619-624 (2003). Female SD rats (6-7 weeks old, Charles River Laboratories Japan, Inc.) were anesthetized with halothane (Takeda Pharmaceutical Company, Limited) and given a single intra-articular injection of 1 mg of monosodium iodoacetate (MIA; Sigma, St. Louis) through the infrapatellar ligament of the right knee. MIA was dissolved with physiological saline and administered in a volume of 50 μL using a 27-gauge, 0.5-inch needle. Three weeks after the injection of MIA (establishment of pathology of osteoarthritis), single oral administration of a ROCK inhibitor or diclofenac was given and the weights of both hindlimbs of the rats were determined using an incapacitance tester (Linton Instrumentation, Norfork, UK) 2 hours after administration of the compounds to obtain ED50 values (Table 1).

The subject of assay [2] is bradykinin-induced joint pain model. As to the kind of experiment: Pain alleviation effect on bradykinin-induced joint pain model. To be noted: for pain score (0-4): 30 min before bradykinin, decreased from 2.6. Format: in vivo, rat. The protocol: Preparation of the Joint Pain Model and Evaluation of a Level of Pain were conducted based on the description in Folia pharmacol. japon. 92, 17-27 (1988). Female SD rats (6-7 weeks old, Charles River Laboratories Japan, Inc.) were anesthetized with halothane (Takeda Pharmaceutical Company, Limited) and given a single intra-articular injection of a saline solution of Wf536 or Compound 2 into the knee joint cavity of the hindlimb using a 27-gauge, 0.5-inch needle at a dose of 0.03 μg/site, 0.3 μg/site or 3 μg/site. Thirty minutes after administration of the drug, a physiological saline solution of bradykinin was injected into the knee joint cavity of the hindlimb (3 μM/site/50 μl), then the response to pain of the rat after administration of bradykinin was observed. The level of pain was scored as five grade point (0-4) as follows: 0: no lameness to lameness for 10 seconds; 1: lameness for 10 to 30 seconds; 2: lift of the limb within 10 seconds or lameness for 31 or more seconds; 3: three-legged gait within 10 seconds followed by lameness; and 4: three-legged gait for 10 or more seconds followed by lameness. About 10 rat models were used in each experimental group. It was confirmed that administration of bradykinin leads to response to pain scored as about 3.

Assay [3] concerns MIA-induced osteoarthritis model. The experiment in a line: Cartilage damage score of the distal end of the tibia in MIA-induced osteoarthritis model. As to conditions: for score of morphological change of the distal end of the tibia (0-4): three weeks after injection, decreased from 3. Format: in vivo, rat. The protocol:
This disease model was prepared according to the description in Toxicol Pathol 31 (6), 619-624 (2003). Female SD rats (6-7 weeks old, Charles River Laboratories Japan, Inc.) were anesthetized with halothane (Takeda Pharmaceutical Company, Limited) and given a single intra-articular injection of 1 mg of monosodium iodoacetate (MIA; Sigma, St. Louis) through the intrapatellar ligament of the right knee. MIA was dissolved with physiological saline and administered in a volume of 50 μL using a 27-gauge, 0.5-inch needle. Three weeks after the injection, a tibia was isolated and morphological change of the distal end of the tibia was scored (0-4; FIG. 1). About 8 rats were used for each group. Three weeks after the injection of MIA, cartilage damage of about score 3 was confirmed. Wf536 or Compound 2 was injected intra-articularly at a concentration of 0.03 μg/site, 0.3 μg/site or 3 μg/site 2 times a week (every 2 to 3 days) from the day of administration of MIA. […] 0: no damage; 1: damage on the surface of cartilage; 2: cartilage degradation; 3: cartilage degradation and subchondral bone damage; 4: cartilage degradation, subchondral bone damage and spur formation.

Setting [4] is: female SD rats, single oral administration three weeks after MIA injection, measured 2 hours after administration.

The structures appear in SMILES notation. Bounds are passed on as bounds.

In the case of `NC(=O)c1cc(F)c(N[C@H]2CC[C@H](N)CC2)cc1F` [Compound 1, 4-[(trans-4-aminocyclohexyl)amino]-2,5-difluorobenzamide], the 50% effective dose (ED50) – broadly, the dose at which the effect has come halfway, by size or by number of responders – in assay [1] (setting [4]) is under 10 mg/kg.
As to `NC(=O)c1cc(Cl)c(N[C@H]2CC[C@H](N)CC2)cc1F` [Compound 2, 4-[(trans-4-aminocyclohexyl)amino]-5-chloro-2-fluorobenzamide], the “pain score (0-4)” value in assay [2] (single intra-articular injection 0.3 μg/site) was 1.1. Also, the 50% effective dose (ED50) in assay [1] (setting [4]) is under 10 mg/kg. For the same compound, the “score of morphological change of the distal end of the tibia (0-4)” value in assay [3] (intra-articular 0.3 μg/site 2 times a week from the day of MIA) is listed as 2.3.
Consider `CC(C)(N)c1ccc(-c2ccc3[nH]ncc3c2)cc1.Cl.Cl` [Compound 3, 2-[4-(1H-indazol-5-yl)phenyl]-2-propanamine dihydrochloride], for which the ED50 in assay [1] (setting [4]) was under 10 mg/kg.
As to `O=C(O)Cc1ccccc1Nc1c(Cl)cccc1Cl` [Diclofenac], the ED50 in assay [1] (setting [4]) is over 30 mg/kg. In assay [1] (single dose given after establishment of the disease in the rat MIA-induced osteoarthritis model), the “efficacy on pain (in words)” value is “ineffective”.
For the compound `Cl.O=S(=O)(c1cccc2cnccc12)N1CCCNCC1` [Fasudil, 5-(hexahydro-1H-1,4-diazepin-1-ylsulfonyl)isoquinoline hydrochloride], the 50% effective dose (ED50) in assay [1] (setting [4]) is under 10 mg/kg.
Consider `C[C@@H](N)c1ccc(C(=O)Nc2ccncc2)cc1.Cl` [Wf536, 4-[(1R)-1-aminoethyl]-N-(4-piridyl)benzamide monohydrochloride], for which, in assay [2] (intra-articular 0.03, 0.3 or 3 μg/site), the “response to pain (in words)” value was “dose-dependently improved the response to pain”. Also, in assay [2] (single intra-articular injection 3 μg/site), the “pain score (0-4)” value is 1.2. Besides, the “Difference in weight between the right and left hindlimbs of rats: ED50” value in assay [1] (setting [4]) is reported as under 30 mg/kg. The “score of morphological change of the distal end of the tibia (0-4)” value in assay [3] (intra-articular 3 μg/site 2 times a week from the day of MIA) turned out to be 2.2. The “MIA-induced cartilage damage (in words)” value in assay [3] (intra-articular 0.03, 0.3 or 3 μg/site 2 times a week, three weeks) is “dose-dependently improved the MIA-induced cartilage damage”.
